Source: ChEMBL document CHEMBL1201862, “PubChem BioAssay data set” (2004)
The source made the active and inactive calls.

Legend:
[1] = biological target: T1, Heat shock factor protein 1 (Mus musculus, UniProt P38532); assay: inhibition of MG132-induced HSE-luciferase signal, confirmation, cell-based, NIH3T3, luminescence, dose retest (AID 2382); format: functional;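 also: NIH3T3 fibroblasts with HSF1-driven luciferase reporter stressed by proteasome inhibitor MG132; luminescence from HSF1-driven luciferase expression after 8 hours of MG132 stress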
T1 sequence (P38532 whole entry): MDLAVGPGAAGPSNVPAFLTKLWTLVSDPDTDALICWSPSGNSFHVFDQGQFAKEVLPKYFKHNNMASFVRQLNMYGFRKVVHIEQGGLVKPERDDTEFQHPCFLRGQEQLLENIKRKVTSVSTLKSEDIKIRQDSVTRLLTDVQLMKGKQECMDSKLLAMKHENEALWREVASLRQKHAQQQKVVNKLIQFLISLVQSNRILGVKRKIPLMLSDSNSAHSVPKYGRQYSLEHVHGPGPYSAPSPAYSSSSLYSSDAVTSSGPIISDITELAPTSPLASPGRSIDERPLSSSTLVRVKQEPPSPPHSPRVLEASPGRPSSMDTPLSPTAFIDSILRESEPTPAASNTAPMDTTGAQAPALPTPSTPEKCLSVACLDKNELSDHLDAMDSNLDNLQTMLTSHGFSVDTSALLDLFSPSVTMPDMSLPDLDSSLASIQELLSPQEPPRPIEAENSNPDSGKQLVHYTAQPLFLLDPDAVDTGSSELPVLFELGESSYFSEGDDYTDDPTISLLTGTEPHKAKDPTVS

[2] = biological target: T2, Apoptotic protease-activating factor 1 (Homo sapiens, UniProt O14727); assay: SAR analysis of small molecule Activators of Apaf-1 in a Fluorescent assay.; format: functional; details: read-out: EC50_Mean;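 also: caspase-3 cleavage of fluorogenic Rh110 DEVD substrate downstream of apoptosome activation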
T2 sequence (O14727 whole entry): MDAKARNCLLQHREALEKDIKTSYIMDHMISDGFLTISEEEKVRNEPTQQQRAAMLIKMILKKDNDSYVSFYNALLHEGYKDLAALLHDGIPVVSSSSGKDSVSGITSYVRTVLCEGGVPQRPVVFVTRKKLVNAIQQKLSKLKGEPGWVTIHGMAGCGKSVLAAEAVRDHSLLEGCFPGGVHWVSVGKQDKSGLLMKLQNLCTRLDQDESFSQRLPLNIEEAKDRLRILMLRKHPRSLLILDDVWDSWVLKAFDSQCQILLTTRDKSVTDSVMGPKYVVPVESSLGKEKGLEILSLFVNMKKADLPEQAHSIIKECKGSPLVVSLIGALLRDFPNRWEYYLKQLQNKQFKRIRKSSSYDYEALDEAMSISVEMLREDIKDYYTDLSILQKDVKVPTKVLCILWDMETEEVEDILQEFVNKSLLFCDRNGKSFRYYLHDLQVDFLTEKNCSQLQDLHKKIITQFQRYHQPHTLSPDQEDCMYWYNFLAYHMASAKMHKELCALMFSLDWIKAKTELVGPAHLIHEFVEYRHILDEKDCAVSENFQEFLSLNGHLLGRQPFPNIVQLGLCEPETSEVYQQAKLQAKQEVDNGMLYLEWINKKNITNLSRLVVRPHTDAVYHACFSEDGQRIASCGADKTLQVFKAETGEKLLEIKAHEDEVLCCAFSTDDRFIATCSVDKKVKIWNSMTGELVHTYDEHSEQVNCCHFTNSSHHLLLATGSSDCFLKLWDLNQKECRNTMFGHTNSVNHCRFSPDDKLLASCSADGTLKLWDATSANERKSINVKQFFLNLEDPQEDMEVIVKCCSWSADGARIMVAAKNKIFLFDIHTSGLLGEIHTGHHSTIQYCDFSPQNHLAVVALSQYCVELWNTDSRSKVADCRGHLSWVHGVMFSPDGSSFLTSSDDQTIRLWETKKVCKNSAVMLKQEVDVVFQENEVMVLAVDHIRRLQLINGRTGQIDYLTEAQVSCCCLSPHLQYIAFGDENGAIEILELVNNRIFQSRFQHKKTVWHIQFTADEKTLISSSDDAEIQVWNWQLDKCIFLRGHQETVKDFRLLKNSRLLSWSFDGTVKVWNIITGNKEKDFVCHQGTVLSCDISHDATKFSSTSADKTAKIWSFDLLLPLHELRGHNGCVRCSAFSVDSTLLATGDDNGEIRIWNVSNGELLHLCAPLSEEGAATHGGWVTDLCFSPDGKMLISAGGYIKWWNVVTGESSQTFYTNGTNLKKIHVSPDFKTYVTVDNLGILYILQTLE

[3] = THP-1 cell cytotoxicity, dose response, cytotoxicity control for non-replicating M. tuberculosis project (AID 489025); format: functional
cells = format: functional
HEK293 [4] = assay: inhibitors of LMP1-driven NF-kB reporter, dose response, cell-based, HEK293, luciferase, cherry-pick (AID 588343); format: functional; details: Homo sapiens
[5] = biological target: Latent membrane protein 1 (Human herpesvirus 4 (strain B95-8), UniProt P03230); assay: TES1-eGFP NF-kB reporter inhibition versus Tet-On dsRED, dose response, selectivity assay for LMP1 NF-kB inhibitor project, imaging, HEK293T, dual-color eGFP/dsRED, cherry-picks (AID 588398); format: functional, cell-based
[6] = biological target: T3, Polyadenylate-binding protein 1 (Homo sapiens, UniProt P11940); assay: PABP1 MLLE–PAM2 interaction inhibitors, dose response, miRNA deadenylation inhibitor project, biochemical, fluorescence polarization, Cy5-PAM2 peptide, secondary (AID 602260); format: functional; details: read-out: IC50_Mean
[7] = biological target: T3, Polyadenylate-binding protein 1; assay: PABP1 MLLE–PAM2 binding inhibitor potency, dose response, biochemical, fluorescence polarization, FITC-PAM2 peptide (AID 602259); format: functional; details: read-out: IC50_Mean
HEK293 [8] = assay: cytotoxicity in HEK293T NF-kB-Luc cells, SAR follow-up, cytotoxicity control for NF-kB activator project, cell-based, resazurin fluorescence (AID 493251); format: functional; details: Homo sapiens
Jurkat [9] = assay: SAR Analysis of small molecule inhibitors of T-cell specific antigen receptor-induced NF-kB activation in a Jurkat cell line using a luminescence assay - Set 2. [Related pubchem assays (depositor defined):AID435003, AID435012, AID465]; format: functional, cell-based; details: Homo sapiens
HEK293 [10] = assay: SAR Analysis of small molecule inhibitors of T-cell specific antigen receptor-induced NF-kB activation in a HEK-293T cell line using a luminescence assay - Set 2. [Related pubchem assays (depositor defined):AID435003, AID435012, AID489026]; format: functional, cell-based; details: Homo sapiens
Jurkat [11] = assay: SAR Analysis of small molecule inhibitors of […] specific antigen receptor-induced NF-kB activation in a Jurkat cell line using a luminescence assay - Set 3. [Related pubchem assays (depositor defined):AID435022, AID435025, AID465]; format: functional, cell-based; details: Homo sapiens
HEK293 [12] = assay: SAR Analysis of small molecule inhibitors of B-cell specific antigen receptor-induced NF-kB activation in a HEK-293T cell line using a luminescence assay - Set 2. [Related pubchem assays (depositor defined):AID435022, AID435025, AID489021]; format: functional, cell-based; details: Homo sapiens
[13] = biological target: T4, Neuropeptides B/W receptor type 1 (Homo sapiens, UniProt P48145); assay: GPR7 antagonist potency, late-stage follow-up, cell-based, fluorescence, dose response, set 5 (AID 588566); format: functional
T4 sequence (P48145 whole entry): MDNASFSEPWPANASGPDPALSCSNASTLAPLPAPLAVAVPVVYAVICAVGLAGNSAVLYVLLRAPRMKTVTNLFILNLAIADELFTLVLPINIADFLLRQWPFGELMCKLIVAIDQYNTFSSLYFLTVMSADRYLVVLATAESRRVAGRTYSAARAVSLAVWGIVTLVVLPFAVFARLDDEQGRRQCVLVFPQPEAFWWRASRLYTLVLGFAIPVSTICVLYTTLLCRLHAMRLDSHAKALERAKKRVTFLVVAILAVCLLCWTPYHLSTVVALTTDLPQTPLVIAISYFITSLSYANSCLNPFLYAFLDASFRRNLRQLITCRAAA

[14] = biological target: Melanin-concentrating hormone receptor 1 (Homo sapiens, UniProt Q99705); assay: Late-stage fluorescence-based counterscreen for antagonists of the G-protein coupled receptor 7 (GPR7): cell-based dose response assay to identify antagonists of the melanin-concentrating hormone receptor 1 (MCHR1) Set 5.; format: functional
[15] = Shn3 3'UTR reporter inhibitors, dose response, cell-based, Clone20 osteoblasts, firefly luciferase, cherry-picked (AID 624132); format: functional;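 also: firefly luciferase luminescence from reporter carrying the Shn3 3'UTR in osteoblasts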
[16] = HepG2 cell cytotoxicity, dose response, cytotoxicity control for Shn3 inhibitor project, CellTiter-Glo, cherry-picked (AID 624134); format: functional, cell-based
[17] = control 3'UTR Renilla luciferase suppression, dose response, counter-screen for Shn3 inhibitor project, cell-based, Clone20-Shn3RL, cherry-picked (AID 624133); format: functional
[18] = biological target: T5, ATP-dependent translocase ABCB1 (Homo sapiens, UniProt P08183); assay: ABCG2 efflux pump inhibitor potency, dose response, Ig-MXP3 cells, JC-1, flow cytometry, set 2 (AID 504566); format: functional; details: read-out: EC50_MICROM_;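 also: flow cytometry median green fluorescence of retained JC-1 dye; potency of efflux pump inhibition measured as rising substrate retention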
[19] = biological target: T5, ATP-dependent translocase ABCB1; assay: ABCB1 efflux inhibitor potency, dose response, Jurkat-DNR cells, JC-1, flow cytometry, set 2 (AID 504569); format: functional; details: read-out: EC50_MICROM_;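 also: potency of pump inhibitors that raise cellular JC-1 green fluorescence up to the nicardipine level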

T3 sequence (P11940 whole entry): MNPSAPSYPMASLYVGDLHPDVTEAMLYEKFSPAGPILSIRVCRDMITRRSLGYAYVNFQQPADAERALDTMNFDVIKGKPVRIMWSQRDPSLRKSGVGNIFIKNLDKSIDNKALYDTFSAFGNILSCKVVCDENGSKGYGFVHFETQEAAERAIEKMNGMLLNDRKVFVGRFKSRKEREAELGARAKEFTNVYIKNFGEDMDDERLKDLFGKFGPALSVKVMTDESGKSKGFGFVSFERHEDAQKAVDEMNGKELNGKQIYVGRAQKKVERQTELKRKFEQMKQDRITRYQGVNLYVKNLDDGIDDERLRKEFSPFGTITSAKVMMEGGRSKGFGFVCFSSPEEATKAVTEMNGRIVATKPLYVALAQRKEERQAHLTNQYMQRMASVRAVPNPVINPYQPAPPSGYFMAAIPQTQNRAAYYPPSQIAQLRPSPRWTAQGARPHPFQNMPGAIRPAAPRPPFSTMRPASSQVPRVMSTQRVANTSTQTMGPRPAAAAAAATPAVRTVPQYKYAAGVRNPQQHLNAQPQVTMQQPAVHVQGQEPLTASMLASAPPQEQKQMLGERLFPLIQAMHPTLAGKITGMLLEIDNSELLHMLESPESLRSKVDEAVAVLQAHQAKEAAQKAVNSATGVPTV
T5 sequence (P08183 whole entry): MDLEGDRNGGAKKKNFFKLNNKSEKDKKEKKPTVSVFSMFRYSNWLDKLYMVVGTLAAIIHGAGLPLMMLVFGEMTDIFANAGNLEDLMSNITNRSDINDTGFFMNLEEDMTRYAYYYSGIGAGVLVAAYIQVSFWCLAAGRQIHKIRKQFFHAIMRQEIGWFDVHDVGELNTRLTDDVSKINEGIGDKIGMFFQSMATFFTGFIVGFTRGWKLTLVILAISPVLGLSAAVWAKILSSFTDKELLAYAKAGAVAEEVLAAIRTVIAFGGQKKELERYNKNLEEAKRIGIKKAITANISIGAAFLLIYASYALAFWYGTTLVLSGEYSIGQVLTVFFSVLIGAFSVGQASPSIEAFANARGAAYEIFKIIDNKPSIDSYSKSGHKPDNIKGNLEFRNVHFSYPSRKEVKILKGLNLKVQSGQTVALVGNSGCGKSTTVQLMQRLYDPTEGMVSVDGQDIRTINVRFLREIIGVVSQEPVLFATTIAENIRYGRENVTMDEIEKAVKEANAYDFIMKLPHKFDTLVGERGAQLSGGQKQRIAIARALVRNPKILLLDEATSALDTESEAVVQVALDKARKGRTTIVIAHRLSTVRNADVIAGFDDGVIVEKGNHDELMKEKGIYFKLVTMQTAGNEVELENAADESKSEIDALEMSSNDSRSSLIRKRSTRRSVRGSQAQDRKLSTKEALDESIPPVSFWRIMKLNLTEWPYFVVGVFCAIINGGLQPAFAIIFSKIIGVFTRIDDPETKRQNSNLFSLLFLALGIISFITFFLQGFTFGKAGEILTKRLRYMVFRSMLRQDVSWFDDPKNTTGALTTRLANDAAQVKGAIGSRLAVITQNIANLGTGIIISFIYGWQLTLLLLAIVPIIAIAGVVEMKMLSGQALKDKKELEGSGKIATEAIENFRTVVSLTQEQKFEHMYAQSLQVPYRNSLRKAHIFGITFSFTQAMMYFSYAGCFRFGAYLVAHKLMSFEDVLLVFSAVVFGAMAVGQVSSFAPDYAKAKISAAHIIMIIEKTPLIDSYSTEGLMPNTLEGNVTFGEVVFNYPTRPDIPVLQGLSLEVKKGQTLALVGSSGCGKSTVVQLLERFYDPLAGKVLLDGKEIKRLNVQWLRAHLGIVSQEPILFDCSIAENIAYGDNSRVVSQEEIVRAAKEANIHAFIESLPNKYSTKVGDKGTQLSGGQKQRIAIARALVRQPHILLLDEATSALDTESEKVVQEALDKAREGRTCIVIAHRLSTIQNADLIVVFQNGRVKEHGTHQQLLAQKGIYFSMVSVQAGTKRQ
Chain of Melanin-concentrating hormone receptor 1 (Q99705 whole entry): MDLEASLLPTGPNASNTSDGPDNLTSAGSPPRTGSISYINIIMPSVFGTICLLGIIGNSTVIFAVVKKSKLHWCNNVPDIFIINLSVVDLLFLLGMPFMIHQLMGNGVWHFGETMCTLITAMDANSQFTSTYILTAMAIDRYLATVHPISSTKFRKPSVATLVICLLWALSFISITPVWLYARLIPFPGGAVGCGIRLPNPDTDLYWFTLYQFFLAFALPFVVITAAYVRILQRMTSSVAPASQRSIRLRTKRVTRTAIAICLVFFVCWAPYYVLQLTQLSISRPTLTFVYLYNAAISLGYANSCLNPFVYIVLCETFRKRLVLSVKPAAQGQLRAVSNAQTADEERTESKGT
Chain of Latent membrane protein 1 (P03230 whole entry): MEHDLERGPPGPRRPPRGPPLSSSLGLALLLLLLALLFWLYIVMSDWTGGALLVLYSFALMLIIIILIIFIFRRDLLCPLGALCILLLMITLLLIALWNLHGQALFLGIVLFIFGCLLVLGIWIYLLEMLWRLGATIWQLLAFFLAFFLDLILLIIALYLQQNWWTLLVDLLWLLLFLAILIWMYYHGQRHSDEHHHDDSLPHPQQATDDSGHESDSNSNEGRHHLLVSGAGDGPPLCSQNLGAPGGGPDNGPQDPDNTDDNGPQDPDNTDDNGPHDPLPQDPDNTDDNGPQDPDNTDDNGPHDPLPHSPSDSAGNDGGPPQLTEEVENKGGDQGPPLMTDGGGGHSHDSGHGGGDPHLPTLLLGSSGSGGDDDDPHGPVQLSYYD

Cc1c(NC(=O)C2CC(c3ccc(F)cc3)=NO2)c(=O)n(-c2ccccc2)n1C (stereo not drawn)
EC50 [1]: > 195 µM (not active) | EC50 [2]: > 100 µM (inactive)

CN1C(=O)N(C)c2ccc(C=O)c3cccc1c23
CC50 [3]: 24.6 µM (active) | IC50 (cells): 31.1 µM (active) | AC50 (HEK293 [4]): 6.36 µM (active) | AC50 [5]: 0.774 µM (active) | IC50 [6]: 37.9 µM (inactive) | IC50 [7]: 58.8 µM (inactive)

COc1ccc(C(=O)Nc2ccc(NC(=O)c3cc4ccccc4o3)cc2)cc1[N+](=O)[O-]
IC50 (HEK293 [8]): > 80 µM (inactive) | IC50 (Jurkat [9]): 76.7 µM (inactive) | IC50 (HEK293 [10]): > 80 µM (inactive)

CCOc1ccc(-c2nc(CSCC(=O)NCCc3ccc(Cl)cc3)c(C)o2)cc1
IC50 (Jurkat [11]): 63.8 µM (inactive) | IC50 (HEK293 [12]): > 80 µM (inactive) | IC50 (HEK293 [8]): > 80 µM (inactive)

Cc1ccc(C(C#N)c2c(Cl)cnn(Cc3cccc4ccccc34)c2=O)cc1 (stereo not drawn)
IC50 [13]: 0.381 µM (active) | IC50 [14]: 1.24 µM (active)

CCOc1ccc(Oc2c(N3CCCC3)c(Br)nn(Cc3cccc4ccccc34)c2=O)cc1
IC50 [13]: > 20 µM (inactive) | IC50 [14]: > 20 µM (inactive)

COc1cccc(-c2cc(N3CCN(C(=O)c4ccoc4)CC3)n3nc(-c4cccc(Cl)c4)cc3n2)c1
AC50 [15]: 6.22 µM (active) | AC50 [16]: 49 µM (active) | AC50 [17]: > 70 µM (inactive) | EC50 [18]: 0.76 µM (active) | EC50 [19]: 2.89 µM (active)
